According to patent publication US6410054B1, “Immediate release eplerenone compositions” (G. D. Searle & Co., priority 1998, dated 2002):

Assays:
[1] = ADME study of [14C]eplerenone oral solution: plasma, whole blood, saliva pharmacokinetics; assay type: in vivo, humans; conditions: for Plasma Concentration: 100 mg oral solution of [14C]eplerenone
Procedure: An open-label, single dose study was employed to evaluate the absorption, distribution, metabolism and elimination profile of a single 100 mg dose of an oral solution of eplerenone.
The study employed eight healthy male humans. Each subject received a single 100 mg oral dose of a solution of [^14C]eplerenone (specific activity 0.75 μCi/mg). Plasma, saliva, breath, urine and fecal samples were collected at predetermined intervals and analyzed for sample radioactivity and the concentration of eplerenone and its open lactone ring form. Safety was determined on the basis of laboratory tests, vital signs, and the occurrence and types of adverse events.
The subjects, who underwent an overnight food fast prior to administration of the dose, received at 0800 hours a single 100 mg oral dose of an aqueous oral solution of radiolabeled eplerenone reconstituted in 80 mL of an apple juice/hydroxypropyl-β-cyclodextrin mixture. The subjects swallowed about 200 mL of water one, two and three hours post dosing.
Blood samples were collected at −0.5 (predose), 0.5, 1, 1.5, 2, 2.5, 3, 4, 6, 8, 12, 16, 24, 36, 48, 72 and 96 hours post dose. […] Individual fecal samples were collected beginning immediately after dosing and continuing through 0800 hours on day 8. In addition, one predose fecal sample was provided. Saliva samples were taken at 0.5 hour predose and at 0.5, 1, 2, 4, 6, 12, and 24 hours postdose. Breath samples were taken at 0.5 hour predose and at 1, 2, 3, 4, 6, 8, 12, 24, 36, 48 and 72 hours postdose.

[2] = Single dose study: plasma pharmacokinetics of eplerenone, open lactone ring form, spironolactone; conditions: open ring lactone in plasma
Procedure: The pharmacokinetics, safety and antialdosterone activity of single 10, 50, 100, 300 and 1000 mg oral doses of eplerenone were evaluated in a single-center, randomized, double-blind, placebo-controlled study.
The study employed seven parallel dose groups of eight healthy male humans.
The eplerenone capsules administered corresponded to the capsules (or combinations of the capsules) disclosed in Examples 4, 5, 7 and 8 above. The placebo was a conventional capsule containing lactose. […] The fludrocortisone used in the study consisted of commercially available fludrocortisone tablets (Florinef®, Squibb BV).
The subjects, who underwent a ten hour food fast prior to administration of the dose, received a single oral dose of one of the study medications together with about 180 mL of water at 0800 hours. […] Each dose of fludrocortisone was administered with 150 mL of water except for the 1.0 mg dose which was administered with 200 mL of water.
The plasma samples collected from subjects dosed with eplerenone were assayed for concentrations of eplerenone and the open lactone ring form of eplerenone. […] A subset of plasma samples was also assayed for testosterone levels. The urine collected was analyzed to determine concentrations and amounts of eplerenone and the open lactone ring form of eplerenone, the amount of sodium and potassium excreted, and the urinary log10 (sodium/potassium) ratio.

[3] = plasma, 100 mg eplerenone oral solution, single dose

- Plasma Concentration ([1]; 0.5 hours after dosing): 63.2 ng/mL
- Plasma Concentration ([1]; 1.0 hours after dosing): 78.0 ng/mL
- Plasma Concentration ([1]; 1.5 hours after dosing): 70.8 ng/mL
- Plasma Concentration ([1]; 2.0 hours after dosing): 59.9 ng/mL
- Plasma Concentration ([1]; 2.5 hours after dosing): 51.0 ng/mL
- Plasma Concentration ([1]; 3.0 hours after dosing): 46.9 ng/mL
- Plasma Concentration ([1]; 4.0 hours after dosing): 41.9 ng/mL
- Plasma Concentration ([1]; 6.0 hours after dosing): 23.0 ng/mL
- Plasma Concentration ([1]; 8.0 hours after dosing): 13.0 ng/mL
- Plasma Concentration ([1]; 48.0 hours after dosing): 0 ng/mL
- Plasma Concentration ([1]; 72.0 hours after dosing): 0 ng/mL
- Plasma Concentration ([1]; −0.5 hours after dosing): 0 ng/mL
- AUC(0-96) [1, 3]: 352.2 (ng/mL) hr
- Mean Residence Time [1, 3]: 3.4 h
- Oral Clearance [1, 3]: 306.3 L/h
- T1/2 [1, 3]: 3.1 h
- Tmax [1, 3]: 1.1 h
- AUC(0-96) ([2]; 50 mg Epl. single oral dose): 142.8 (ng/mL) hr
- Mean Residence Time ([2]; 50 mg Epl. single oral dose): 2.8 h
- Oral Clearance ([2]; 50 mg Epl. single oral dose): 491.3 L/h
- T1/2 ([2]; 50 mg Epl. single oral dose): 2.7 h
- Tmax ([2]; 50 mg Epl. single oral dose): 1.0 h
- AUC(0-96) ([2]; 100 mg Epl. single oral dose): 246.8 (ng/mL) hr
- Mean Residence Time ([2]; 100 mg Epl. single oral dose): 3.3 h
- Oral Clearance ([2]; 100 mg Epl. single oral dose): 445.2 L/h
- T1/2 ([2]; 100 mg Epl. single oral dose): 2.7 h
- Tmax ([2]; 100 mg Epl. single oral dose): 1.1 h
- AUC(0-96) ([2]; 300 mg Epl. single oral dose): 1065.1 (ng/mL) hr
- Mean Residence Time ([2]; 300 mg Epl. single oral dose): 4.2 h
- Oral Clearance ([2]; 300 mg Epl. single oral dose): 299.8 L/h
- T1/2 ([2]; 300 mg Epl. single oral dose): 2.8 h
- Tmax ([2]; 300 mg Epl. single oral dose): 1.3 h
- AUC(0-96) ([2]; 1000 mg Epl. single oral dose): 3483.5 (ng/mL) hr
- Mean Residence Time ([2]; 1000 mg Epl. single oral dose): 5.7 h
- Oral Clearance ([2]; 1000 mg Epl. single oral dose): 330.7 L/h
- T1/2 ([2]; 1000 mg Epl. single oral dose): 2.6 h
- Tmax ([2]; 1000 mg Epl. single oral dose): 2.5 h
Compound: COC(=O)C1CC2=CC(=O)CCC2(C)C23OC2CC2(C)C(CCC2(O)CCC(=O)O)C13 (stereo not shown) [Open Ring Lactone]
